Mutagenic call data for six compounds are collected here from PubChem BioAssay AID1259407 (Chemical Carcinogenesis Research Information System (CCRIS), 2018).

The series has as its system CCRIS mutagenicity, Ames/micronucleus/aberration tests. The experiment in a line: CCRIS mutagenicity studies.
The mark [1] stands for this setting: Test System: AMES SALMONELLA TYPHIMURIUM, Strain/Indicator: TA98, Metabolic Activation: NONE, Method: STANDARD PLATE.
The mark [2] stands for this setting: Test System: AMES SALMONELLA TYPHIMURIUM, Strain/Indicator: TA98, Metabolic Activation: NONE, Method: PREINCUBATION
Setting [3] is: Test System: AMES SALMONELLA TYPHIMURIUM, Strain/Indicator: TA100, Metabolic Activation: NONE, Method: PREINCUBATION
Setting [4] is: Test System: AMES SALMONELLA TYPHIMURIUM, Strain/Indicator: TA100, Metabolic Activation: NONE, Method: STANDARD PLATE.

Active and inactive are the calls of the source. The rule behind the calls is not given here.

For `CCN(Cc1cccc(S(=O)(=O)O)c1)c1ccc(C(=C2C=CC(=[N+](CC)Cc3cccc(S(=O)(=O)[O-])c3)C=C2)c2ccc(S(=O)(=O)O)cc2)cc1`, the mutagenic call is “active; positive” (Test System: AMES SALMONELLA TYPHIMURIUM, Strain/Indicator: TA98, Metabolic Activation: HAMSTER, LIVER, S-9, AROCLOR 1254, Method: STANDARD PLATE); “active; positive” (Test System: AMES SALMONELLA TYPHIMURIUM, Strain/Indicator: TA98, Metabolic Activation: HAMSTER, LIVER, S-9, Method: PREINCUBATION (PRIVAL METHOD)); “active; positive” (Test System: AMES SALMONELLA TYPHIMURIUM, Strain/Indicator: TA100, Metabolic Activation: HAMSTER, LIVER, S-9, Method: PREINCUBATION (PRIVAL METHOD)); “active; positive” (Test System: AMES SALMONELLA TYPHIMURIUM, Strain/Indicator: TA1538, Metabolic Activation: HAMSTER, LIVER, S-9, AROCLOR 1254, Method: STANDARD PLATE); “active; positive” (Test System: Mouse lymphoma, Strain/Indicator: L5178Y (tk+/tk-), Metabolic Activation: None, Method: Suspension/plate); “inactive; negative” (Test System: Mouse lymphoma, Strain/Indicator: L5178Y (tk+/tk-), Metabolic Activation: Rat, Liver, S-9, Aroclor 1254, Method: Suspension/plate).

On to `O=[N+]([O-])c1ccc2cn[nH]c2c1`, for which the mutagenic call under setting [1] was “active; positive”.

For `C=CC(=O)N(CC1CO1)CC1CO1` (stereo not given), the mutagenic call is “active; positive” under setting [2]; “active; positive” under setting [1]; “inactive; negative” (Test System: AMES SALMONELLA TYPHIMURIUM, Strain/Indicator: TA98, Metabolic Activation: RAT, LIVER, S-9, AROCLOR 1254, Method: PREINCUBATION); “active; positive” (Test System: AMES SALMONELLA TYPHIMURIUM, Strain/Indicator: TA98, Metabolic Activation: RAT, LIVER, S-9, AROCLOR 1254, Method: STANDARD PLATE); “active; positive” under setting [3]; “active; positive” under setting [4]. In addition, the mutagenic call reads like this: (Test System: AMES SALMONELLA TYPHIMURIUM, Strain/Indicator: TA100, Metabolic Activation: RAT, LIVER, S-9, AROCLOR 1254, Method: PREINCUBATION) “active; positive”; (Test System: AMES SALMONELLA TYPHIMURIUM, Strain/Indicator: TA100, Metabolic Activation: RAT, LIVER, S-9, AROCLOR 1254, Method: STANDARD PLATE) “active; positive”.

Take `COc1ccc2cc([C@H](C)C(=O)O)ccc2c1`: the mutagenic call is, setting by setting: (Test System: AMES SALMONELLA TYPHIMURIUM, Strain/Indicator: TA97A, Metabolic Activation: NONE, Method: STANDARD PLATE) “inactive; negative”; (Test System: AMES SALMONELLA TYPHIMURIUM, Strain/Indicator: TA97A, Metabolic Activation: RAT, LIVER, S-9, PHENOBARBITAL, Method: STANDARD PLATE) “inactive; negative”; (Test System: AMES SALMONELLA TYPHIMURIUM, Strain/Indicator: TA98, Metabolic Activation: GUINEA PIG, LIVER, S-9, PCB, Method: PREINCUBATION) “inactive; negative”; (Test System: AMES SALMONELLA TYPHIMURIUM, Strain/Indicator: TA98, Metabolic Activation: HAMSTER, LIVER, S-9, PCB, Method: PREINCUBATION) “inactive; negative”; (Test System: AMES SALMONELLA TYPHIMURIUM, Strain/Indicator: TA98, Metabolic Activation: MOUSE, LIVER, S-9, PCB, Method: PREINCUBATION) “inactive; negative”; under setting [2], “inactive; negative”. The mutagenic call by setting is: (Test System: AMES SALMONELLA TYPHIMURIUM, Strain/Indicator: TA98, Metabolic Activation: RAT, LIVER, S-9, PCB, Method: PREINCUBATION) “inactive; negative”; (Test System: AMES SALMONELLA TYPHIMURIUM, Strain/Indicator: TA98, Metabolic Activation: RAT, LIVER, S-9, PCB, Method: STANDARD PLATE) “inactive; negative”; (Test System: AMES SALMONELLA TYPHIMURIUM, Strain/Indicator: TA100, Metabolic Activation: GUINEA PIG, LIVER, S-9, PCB, Method: PREINCUBATION) “inactive; negative”; (Test System: AMES SALMONELLA TYPHIMURIUM, Strain/Indicator: TA100, Metabolic Activation: HAMSTER, LIVER, S-9, PCB, Method: PREINCUBATION) “inactive; negative”; (Test System: AMES SALMONELLA TYPHIMURIUM, Strain/Indicator: TA100, Metabolic Activation: MOUSE, LIVER, S-9, PCB, Method: PREINCUBATION) “inactive; negative”; under setting [3], “inactive; negative”. The mutagenic call is, setting by setting: under setting [4], “inactive; negative”; (Test System: AMES SALMONELLA TYPHIMURIUM, Strain/Indicator: TA100, Metabolic Activation: RAT, LIVER, S-9, PCB, Method: PREINCUBATION) “inactive; negative”; (Test System: AMES SALMONELLA TYPHIMURIUM, Strain/Indicator: TA100, Metabolic Activation: RAT, LIVER, S-9, PCB, Method: STANDARD PLATE) “inactive; negative”; (Test System: AMES SALMONELLA TYPHIMURIUM, Strain/Indicator: TA100, Metabolic Activation: RAT, LIVER, S-9, PHENOBARBITAL, Method: STANDARD PLATE) “inactive; negative”; (Test System: AMES SALMONELLA TYPHIMURIUM, Strain/Indicator: TA102, Metabolic Activation: NONE, Method: STANDARD PLATE) “inactive; negative”; (Test System: AMES SALMONELLA TYPHIMURIUM, Strain/Indicator: TA102, Metabolic Activation: RAT, LIVER, S-9, PHENOBARBITAL, Method: STANDARD PLATE) “inactive; negative”. In addition, the mutagenic call runs as follows: (Test System: AMES SALMONELLA TYPHIMURIUM, Strain/Indicator: TA1537, Metabolic Activation: RAT, LIVER, S-9, PCB, Method: STANDARD PLATE) “inactive; negative”; (Test System: AMES SALMONELLA TYPHIMURIUM, Strain/Indicator: TA1538, Metabolic Activation: RAT, LIVER, S-9, PCB, Method: STANDARD PLATE) “inactive; negative”; (Test System: E. COLI, Strain/Indicator: WP2 UVRA, Metabolic Activation: RAT, LIVER, S-9, PCB, Method: STANDARD PLATE) “inactive; negative”.

With `COc1cc2c(c3oc(=O)c4c(c13)CCC4=O)[C@@]1(O)[C@@H](O2)O[C@@H]2O[C@@H]21`, the mutagenic call is “active; positive” (Test System: AMES SALMONELLA TYPHIMURIUM, Strain/Indicator: TA100, Metabolic Activation: NONE, Method: MICROSUSPENSION) and “active; positive” (Test System: AMES SALMONELLA TYPHIMURIUM, Strain/Indicator: TA100, Metabolic Activation: RAT, LIVER, S-9, AROCLOR 1254, Method: MICROSUSPENSION).

With `[B-]`, the mutagenic call was “inactive; negative” under setting [2]; “inactive; negative” (Test System: AMES SALMONELLA TYPHIMURIUM, Strain/Indicator: TA98, Metabolic Activation: RAT LIVER S-9, PHENOBARBITAL AND BETA-NAPHTHOFLAVONE, Method: PREINCUBATION); “inactive; negative” under setting [3]; “inactive; negative” (Test System: AMES SALMONELLA TYPHIMURIUM, Strain/Indicator: TA100, Metabolic Activation: RAT LIVER S-9, PHENOBARBITAL AND BETA-NAPHTHOFLAVONE, Method: PREINCUBATION); “inactive; negative” (Test System: AMES SALMONELLA TYPHIMURIUM, Strain/Indicator: TA1535, Metabolic Activation: NONE, Method: PREINCUBATION); “inactive; negative” (Test System: AMES SALMONELLA TYPHIMURIUM, Strain/Indicator: TA1535, Metabolic Activation: RAT LIVER S-9, PHENOBARBITAL AND BETA-NAPHTHOFLAVONE, Method: PREINCUBATION). For the same compound, the mutagenic call by setting is: (Test System: AMES SALMONELLA TYPHIMURIUM, Strain/Indicator: TA1537, Metabolic Activation: NONE, Method: PREINCUBATION) “inactive; negative”; (Test System: AMES SALMONELLA TYPHIMURIUM, Strain/Indicator: TA1537, Metabolic Activation: RAT LIVER S-9, PHENOBARBITAL AND BETA-NAPHTHOFLAVONE, Method: PREINCUBATION) “inactive; negative”; (Test System: AMES SALMONELLA TYPHIMURIUM, Strain/Indicator: TA1538, Metabolic Activation: NONE, Method: PREINCUBATION) “inactive; negative”; (Test System: AMES SALMONELLA TYPHIMURIUM, Strain/Indicator: TA1538, Metabolic Activation: RAT LIVER S-9, PHENOBARBITAL AND BETA-NAPHTHOFLAVONE, Method: PREINCUBATION) “inactive; negative”; (Test System: E.COLI, Strain/Indicator: WP2UVRA, Metabolic Activation: NONE, Method: PREINCUBATION) “inactive; negative”; (Test System: E.COLI, Strain/Indicator: WP2UVRA, Metabolic Activation: RAT LIVER S-9, PHENOBARBITAL AND BETA-NAPHTHOFLAVONE, Method: PREINCUBATION) “inactive; negative”.
